The target in this assay is T1, human S1P1 receptors (Homo sapiens, UniProt P21453).
T1 construct: host or cells: HEK293
Briefly: S1P1R antagonist assay (fluorescent membrane potential dye, cAMP readout). Type of assay: cell-based. The following applies: HEK293 cells expressing human S1P1 receptors and CNG channel; 500 nM NECA; S1P1R agonist 10 nM; 90 minutes; read-out: EC50 or IC50 value.

The results in this text go back to patent US8791102B2, “Acetanilide sphingosine-1-phosphate receptor antagonists” (Exelixis, Inc., priority 2008, dated 2014).

T1 sequence (P21453 whole entry): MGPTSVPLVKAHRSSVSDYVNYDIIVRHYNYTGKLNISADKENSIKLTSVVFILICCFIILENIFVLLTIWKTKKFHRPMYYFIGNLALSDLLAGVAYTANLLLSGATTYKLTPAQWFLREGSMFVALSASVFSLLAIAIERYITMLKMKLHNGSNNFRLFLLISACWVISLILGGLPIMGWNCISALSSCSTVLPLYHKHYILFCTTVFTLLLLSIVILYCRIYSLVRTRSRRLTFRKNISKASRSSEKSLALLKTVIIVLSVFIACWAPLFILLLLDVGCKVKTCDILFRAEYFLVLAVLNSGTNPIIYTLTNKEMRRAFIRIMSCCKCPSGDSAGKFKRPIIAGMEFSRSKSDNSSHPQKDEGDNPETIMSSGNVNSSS

The term IC50 denotes the point on the concentration scale where inhibition reaches its midpoint. For the compound `CC1CCCN(CC(=O)N[C@@H](COCc2ccccc2)C(=O)Nc2ccc(Oc3ccc(F)cc3)cc2)C1` (stereo partly drawn) [Compound 46, (2S)-3-(benzyloxy)-N-(4-(4-fluorophenoxy)phenyl)-2-(2-(3-methylpiperidin-1-yl)acetamido)propanamide], the IC50 was over 1000 nM.
`N#Cc1ccc(C(=O)NC(COCc2ccccc2)C(=O)Nc2ccc(Oc3ccccc3)cc2)cc1` (stereo not drawn) [Compound 380, 4-cyano-N-(2-oxo-1-{[(phenylmethyl)oxy]methyl}-2-{[4-(phenyloxy)phenyl]amino}ethyl)benzamide]: the 50% inhibitory concentration (IC50) is over 1000 nM.
To `CCOc1ccc(CC(=O)NC(COCc2ccccc2)C(=O)Nc2ccc(Oc3ccccc3)cc2)cc1` (stereo not drawn) [Compound 343, N-(2-oxo-1-{[(phenylmethyl)oxy]methyl}-2-{[4-(phenyloxy)phenyl]amino}ethyl)-2-(4-ethoxyphenyl)acetamide] belongs over 1000 nM.
Consider `O=C(NC(COCc1ccccc1)C(=O)Nc1ccc(Oc2ccccc2)cc1)c1sc2ccccc2c1Cl` (stereo not drawn) [Compound 297, 3-chloro-N-(2-oxo-1-{[(phenylmethyl)oxy]methyl}-2-{[4-(phenyloxy)phenyl]amino}ethyl)-1-benzothiophene-2-carboxamide], for which the IC50 is over 1000 nM.
On to `O=C(Cc1c[nH]c2ccc(F)cc12)N[C@@H](COCc1ccccc1)C(=O)Nc1ccc(Oc2ccc(F)cc2)cc1` [Compound 212, (S)-3-(benzyloxy)-2-(2-(5-fluoro-1H-indol-3-yl)acetamido)-N-(4-(4-fluorophenoxy)phenyl)propanamide], for which the concentration for half-maximal inhibition (IC50) is at most 300 nM.
As for `O=C(Nc1ccc(Oc2ccc(F)cc2)cc1)[C@@H]1C[C@@H](Cc2ccccc2)CN1C(=O)CC(F)(F)F` [Compound 34, (2S,4R)-4-benzyl-N-(4-(4-fluorophenoxy)phenyl)-1-(3,3,3-trifluoropropanoyl)pyrrolidine-2-carboxamide], the figure is at most 300 nM; as for `O=C(CN1CCOCC1)N[C@@H](COCc1ccccc1)C(=O)Nc1ccc(Oc2ccc(F)cc2)cc1` [Compound 155, (S)-3-(benzyloxy)-N-(4-(4-fluorophenoxy)phenyl)-2-(2-morpholinoacetamido)propanamide], at most 300 nM.
To `CC(C)(C(=O)N[C@@H](COCc1ccccc1)C(=O)Nc1ccc(Oc2ccc(F)cc2)cc1)n1cncn1` [Compound 255, (S)-3-(benzyloxy)-N-(4-(4-fluorophenoxy)phenyl)-2-(2-methyl-2-(1H-1,2,4-triazol-1-yl)propanamido)propanamide] belongs 300 to 1000 nM; to `O=C(Nc1ccc(Oc2ccc(F)cc2)cc1)[C@@H]1C[C@@H](Cc2ccccc2)CN1C(=O)[C@H](O)c1ccccc1` [Compound 40, (2S,4R)-4-benzyl-N-(4-(4-fluorophenoxy)phenyl)-1-((R)-2-hydroxy-2-phenylacetyl)pyrrolidine-2-carboxamide], at most 300 nM.
To `CC(C(=O)NC(COCc1ccccc1)C(=O)Nc1ccc(Oc2ccccc2)cc1)c1ccccc1` (stereo not drawn) [Compound 359, N-(2-oxo-1-{[(phenylmethyl)oxy]methyl}-2-{[4-(phenyloxy)phenyl]amino}ethyl)-2-phenylpropanamide] belongs over 1000 nM; to `COc1ccc(Oc2ccc(NC(=O)[C@H](COCc3ccccc3)NC(=O)Cc3c[nH]cn3)cc2)cc1` [Compound 202, (S)-2-(2-(1H-imidazol-4-yl)acetamido)-3-(benzyloxy)-N-(4-(4-methoxyphenoxy)phenyl)propanamide], at most 300 nM; to `COc1ccc(C(=O)NC(COCc2ccccc2)C(=O)Nc2ccc(Oc3ccccc3)cc2)cc1` (stereo not drawn) [Compound 270, 4-(methyloxy)-N-(2-oxo-1-{[(phenylmethyl)oxy]methyl}-2-{[4-(phenyloxy)phenyl]amino}ethyl)benzamide], over 1000 nM.
As for `O=C(NC(COCc1ccccc1)C(=O)Nc1ccc(Oc2ccccc2)cc1)c1ccccc1-n1cccc1` (stereo not drawn) [Compound 314, N-(2-oxo-1-{[(phenylmethyl)oxy]methyl}-2-{[4-(phenyloxy)phenyl]amino}ethyl)-2-(1H-pyrrol-1-yl)benzamide], the IC50 was over 1000 nM.
As for `O=C(CC[N+](=O)[O-])N[C@@H](COCc1ccccc1)C(=O)Nc1ccc(Oc2ccc(F)cc2)cc1` [Compound 245, (S)-3-(benzyloxy)-N-(4-(4-fluorophenoxy)phenyl)-2-(3-nitropropanamido)propanamide], the figure is at most 300 nM.
In the case of `CC(C)(C(=O)N[C@@H](COCc1ccccc1)C(=O)Nc1ccc(Oc2ccc(F)cc2)cc1)c1c[nH]cn1` [Compound 213, (S)-2-(2-(1H-imidazol-4-yl)-2-methylpropanamido)-3-(benzyloxy)-N-(4-(4-fluorophenoxy)phenyl)propanamide], the IC50 was at most 300 nM.
For `Cc1noc(C)c1CC(=O)N[C@@H](COCc1ccccc1)C(=O)Nc1ccc(Oc2ccc(F)cc2)cc1` [Compound 150, (S)-3-(benzyloxy)-2-(2-(3,5-dimethylisoxazol-4-yl)acetamido)-N-(4-(4-fluorophenoxy)phenyl)propanamide], the IC50 is at most 300 nM.
To `O=C(CCC1CCCC1)NC(COCc1ccccc1)C(=O)Nc1ccc(Oc2ccccc2)cc1` (stereo not drawn) [Compound 278, N-(2-oxo-1-{[(phenylmethyl)oxy]methyl}-2-{[4-(phenyloxy)phenyl]amino}ethyl)-3-cyclopentylpropanamide] belongs over 1000 nM; to `CC(=O)CCC(=O)NC(COCc1ccccc1)C(=O)Nc1ccc(Oc2ccccc2)cc1` (stereo not drawn) [Compound 347, 4-oxo-N-(2-oxo-1-{[(phenylmethyl)oxy]methyl}-2-{[4-(phenyloxy)phenyl]amino}ethyl)pentanamide], over 1000 nM; to `COCCC(=O)NC(COCc1ccccc1)C(=O)Nc1ccc(Oc2ccccc2)cc1` (stereo not drawn) [Compound 337, N-(2-oxo-1-{[(phenylmethyl)oxy]methyl}-2-{[4-(phenyloxy)phenyl]amino}ethyl)-3-methoxypropanamide], over 1000 nM.
As for `O=C(Nc1ccc(Oc2ccc(F)cc2)cc1)[C@@H]1C[C@@H](NCc2ccsc2)CN1C(=O)Cn1cncn1` [Compound 182, (2S,4R)-1-(2-(1H-1,2,4-triazol-1-yl)acetyl)-N-(4-(4-fluorophenoxy)phenyl)-4-(thien-3-ylmethylamino)pyrrolidine-2-carboxamide], the figure is at most 300 nM; as for `CS(=O)(=O)CC(=O)NC(COCc1ccccc1)C(=O)Nc1ccc(Oc2ccccc2)cc1` (stereo not drawn) [Compound 19, 3-(benzyloxy)-2-(2-(methylsulfonyl)acetamido)-N-(4-phenoxyphenyl)propanamide], over 1000 nM; as for `O=C(NC(COCc1ccccc1)C(=O)Nc1ccc(Oc2ccccc2)cc1)c1cccc(Cl)c1F` (stereo not drawn) [Compound 299, 3-chloro-2-fluoro-N-(2-oxo-1-{[(phenylmethyl)oxy]methyl}-2-{[4-(phenyloxy)phenyl]amino}ethyl)benzamide], over 1000 nM.
As for `O=C(Cc1cnc[nH]1)N[C@@H](COCc1ccccc1)C(=O)Nc1ccc(Oc2ccc(Cl)cc2)c(Cl)c1` [Compound 154, (S)-2-(2-(1H-imidazol-4-yl)acetamido)-3-(benzyloxy)-N-(3-chloro-4-(4-chlorophenoxy)phenyl)propanamide], the figure is at most 300 nM; as for `CCCCCC(=O)NC(COCc1ccccc1)C(=O)Nc1ccc(Oc2ccccc2)cc1` (stereo not drawn) [Compound 295, N-(2-oxo-1-{[(phenylmethyl)oxy]methyl}-2-{[4-(phenyloxy)phenyl]amino}ethyl)hexanamide], over 1000 nM.
For the compound `CN(CC(=O)N[C@@H](COCc1ccccc1)C(=O)Nc1ccc(Oc2ccccc2)cc1)C(=O)c1ccccc1` [Compound 194, (S)-2-{2-((benzoyl)(methyl)amino)acetamido}-3-benzyloxy-N-(4-phenoxyphenyl)propanamide], the IC50 lay within 300 to 1000 nM.
As to `CN(C)c1ccc(CC(=O)N2C[C@H](Cc3ccccc3)C[C@H]2C(=O)Nc2ccc(Oc3ccc(F)cc3)cc2)cc1` [Compound 35, (2S,4R)-4-benzyl-1-(2-(4-(dimethylamino)phenyl)acetyl)-N-(4-(4-fluorophenoxy)phenyl)pyrrolidine-2-carboxamide], the IC50 is at most 300 nM.
To `COc1ccc(F)cc1C(=O)NC(COCc1ccccc1)C(=O)Nc1ccc(Oc2ccccc2)cc1` (stereo not drawn) [Compound 308, 5-fluoro-2-(methyloxy)-N-(2-oxo-1-{[(phenylmethyl)oxy]methyl}-2-{[4-(phenyloxy)phenyl]amino}ethyl)benzamide] belongs over 1000 nM.
As for `Cc1ccc(C(=O)NC(COCc2ccccc2)C(=O)Nc2ccc(Oc3ccccc3)cc2)cc1C` (stereo not drawn) [Compound 279, 3,4-dimethyl-N-(2-oxo-1-{[(phenylmethyl)oxy]methyl}-2-{[4-(phenyloxy)phenyl]amino}ethyl)benzamide], the figure is over 1000 nM.
As for `O=C(Cc1c[nH]cn1)N[C@@H](COCc1ccc(F)cc1)C(=O)Nc1ccc(Oc2ccc(Cl)cc2)cc1` [Compound 132, (S)-2-(2-(1H-imidazol-5-yl)acetamido)-3-(4-fluorobenzyloxy)-N-(4-(4-chlorophenoxy)phenyl)propanamide], the figure is at most 300 nM.
As to `O=C(NC(COCc1ccccc1)C(=O)Nc1ccc(Oc2ccccc2)cc1)c1ccc2[nH]ccc2c1` (stereo not drawn) [Compound 20, N-(3-(benzyloxy)-1-oxo-1-(4-phenoxyphenylamino)propan-2-yl)-1H-indole-5-carboxamide], the 50% inhibitory concentration (IC50) is over 1000 nM.
In the case of `Cc1cc(CC(=O)N2C[C@H](Cc3ccccc3)C[C@H]2C(=O)Nc2ccc(Oc3ccc(F)cc3)cc2)n[nH]1` [Compound 177, (2S,4R)-4-benzyl-N-(4-(4-fluorophenoxy)phenyl)-1-(2-(5-methyl-1H-pyrazol-3-yl)acetyl)pyrrolidine-2-carboxamide], the IC50 is at most 300 nM.
As for `O=C(NC(COCc1ccccc1)C(=O)Nc1ccc(Oc2ccccc2)cc1)c1cccc(Cl)c1` (stereo not drawn) [Compound 275, 3-chloro-N-(2-oxo-1-{[(phenylmethyl)oxy]methyl}-2-{[4-(phenyloxy)phenyl]amino}ethyl)benzamide], the figure is over 1000 nM.
As for `CCCCc1ccc(C(=O)NC(COCc2ccccc2)C(=O)Nc2ccc(Oc3ccccc3)cc2)nc1` (stereo not drawn) [Compound 378, 5-butyl-N-(2-oxo-1-{[(phenylmethyl)oxy]methyl}-2-{[4-(phenyloxy)phenyl]amino}ethyl)pyridine-2-carboxamide], the figure is 300 to 1000 nM.
